Test results reported in the METLIN SMRT retention time set (Domingo-Almenara et al. 2019).

Assay: gradient 5% acetonitrile 3 min, to 50% in 2 min, to 85% in 15 min, held 3 min, 100 µL/min
Conditions: column: Zorbax Extend-C18 2.1 x 50 mm; eluents: water / acetonitrile, 0.1% formic acid
Method in brief: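 Retention times come from adduct peaks that were picked computationally and then checked by hand. The standards, pure and pooled in mixtures of ~100 molecules, were run on a Zorbax Extend-C18 column (2.1 × 50 mm, 1.8 μm) at 100 μL/min with water and acetonitrile, each with 0.1% formic acid. Detection was by quadrupole time-of-flight mass spectrometry in positive and negative ionization mode, with a dead volume of 40 μL and a dwell volume of 900 μL.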

Structure (SMILES)	RP-LC retention time
Cc1cccc(C)c1NC(=O)Cn1cnc2onc(C)c2c1=O	731 s
CCN1C(=O)CCc2cc(NS(=O)(=O)c3c(C)cccc3Cl)ccc21	846 s
COCCc1noc([C@@H]2CN(Cc3cccc(Cl)c3)C[C@H]2CO)n1	609 s
CCOc1ccccc1-c1c(C#N)c(N)nc2c1c(=O)n(C)c(=O)n2C	786 s
CSc1ccc(CCNC(=O)CCC(=O)N2CCCn3nc(C)cc32)cc1	703 s
CCN(CC)S(=O)(=O)c1ccc2nc(NCc3cc(F)cc(F)c3)cnc2c1	1060 s
CC(C)CN1Cc2c(nc3ccccc3c2C(=O)N2CCC(C)CC2)C1=O	834 s
CCCCn1c(=O)c2ccccc2n(Cc2nc(-c3cccc(C(F)(F)F)c3)no2)c1=O	1240 s
CN(CCNC(=O)c1ccc(-c2ccnc(N3CCCC3)n2)cc1)C1CCCCC1	611 s
O=C(Nc1ccc2c(c1)N(C(=O)c1ccco1)CC2)c1ccc2c(c1)OCO2	770 s
CCOC(=O)c1cccc(NC(=O)C2CCCN(c3nc4ccccc4nc3C(F)(F)F)C2)c1 (configuration not stated)	1280 s
Cc1cccc(CNC(=O)C2CCN(S(=O)(=O)c3cn(C(C)C)cn3)CC2)c1	773 s
CCn1c(=O)c2ccccc2n(Cc2nc(-c3ccccc3C)no2)c1=O	1070 s
NS(=O)(=O)c1cccnc1Nc1cc(F)cc(F)c1	858 s
COc1cccc(CNC(=O)C2CCc3nc(N4CCOCC4)ncc3C2)c1 (configuration not stated)	660 s
COc1ccccc1N1CCN(S(=O)(=O)c2cc(-c3cc(C(F)(F)F)on3)cs2)CC1	1200 s
Cc1cccc(NS(=O)(=O)c2cc3c(s2)CCN(C(=O)C2CC2)C3)c1	849 s
C#CCOCC1CCN(C(=O)CSC2CCCC2)CC1	852 s
Cc1ccc(C)c(S(=O)(=O)N2CCC3(CCC(CN4CCN(C)CC4)O3)CC2)c1 (configuration not stated)	638 s
CC(C)Cn1cc(S(=O)(=O)Nc2ccc(F)cc2Cl)c2cccnc21	1010 s
CCOc1ccc(S(=O)(=O)N2CCC(c3noc(-c4cccc(F)c4)n3)CC2)cc1	1190 s
COCCN1CCC(N2CCN(S(=O)(=O)c3ccc(F)c(Cl)c3)CC2)C1=O (configuration not stated)	620 s

Structure (SMILES)	RP-LC retention time
CCCN1C(=O)c2cc(S(=O)(=O)Nc3cc(F)ccc3C)ccc2Oc2cccnc21	1120 s
O=C(NCCN1CCCCCC1)c1ccc2c(c1)NC(=O)C1CCCCN21 (configuration not stated)	601 s
O=c1c2oc3ccccc3c2ncn1Cc1nc(-c2ccc3c(c2)OCO3)no1	909 s
COc1ccc(NC(=O)C2CCCN(c3nnc4c(Cl)cccn34)C2)cc1OC (configuration not stated)	667 s
COC(=O)C1=CN(c2ccc(OC)cc2)c2cc(F)ccc2S1(=O)=O	844 s
Cn1cc(C2=CCN(C(=O)c3cccc(F)c3)CC2)c2cccnc21	816 s
Cc1ccccc1-c1ccc(N2CCC(C(=O)Nc3cccnc3)CC2)nn1	546 s
COc1ccc(NC(=O)c2cnc(N3CCN(c4ccccc4OC)CC3)nc2N)cc1	737 s
CC(C)CCN1C(=O)C2(NCCc3c2[nH]c2ccccc32)c2cc(Br)ccc21 (configuration not stated)	835 s
COc1ccc(-c2noc(C3CCCN3C(=O)c3cc(F)ccc3F)n2)cc1OC (configuration not stated)	900 s
CCOc1ccc(CNC(=O)c2cn3ccccc3n2)cc1	687 s
O=C(Nc1cc(F)ccc1F)c1c(O)c2cccnc2n(-c2ccc(F)cc2)c1=O	1270 s
COc1ccc(-c2noc(N3CCC(C(=O)NCCC4=CCCCC4)CC3)n2)cc1	1050 s
COc1cccc(CNC(=O)CCc2nc3c(C)cccc3c(=O)n2C)c1OC	791 s
Clc1ccc(-c2csc(N3CCOCC3)n2)c(Cl)c1	1260 s
Cc1ccc(-c2noc(CN3N=NC4C(=O)N(c5ccccc5)C(=O)C43)n2)cc1C (configuration not stated)	1020 s
COc1ccc(-c2cc3c(=O)n(Cc4nc(-c5ccc(OC)cc5OC)oc4C)ccn3n2)cc1	1020 s
CCSc1ccccc1C(=O)NCCS(=O)(=O)N1CCc2ccccc2C1	862 s
COc1ccc(CC(=O)Nc2ccc(-c3nc(Cn4nc(C)cc4C)c(C)o3)cc2)cc1	903 s
Cc1nc2ccccc2n1Cc1nnc2sc(-c3cccnc3)nn12	550 s
Cc1ccc(-c2c(-c3nn(C)c4ncnc(N5CC[C@H](N6CCCCC6)C5)c34)cnn2C)cc1	657 s
Brc1ccc(OCc2nn3c(-c4cccnc4)nnc3s2)cc1	885 s

Structure (SMILES)	RP-LC retention time
O=C(O)CCC1CCCN(S(=O)(=O)c2ccccc2)C1 (configuration not stated)	770 s
CN(C)C(=O)c1csc(S(=O)(=O)N2CCC(C(=O)NCc3ccc4c(c3)OCO4)CC2)c1	714 s
Cc1ccccc1C(=O)N1C(C(=O)NCC(C)C)COC12CCN(C(=O)C(C)(C)C)CC2 (configuration not stated)	782 s
Cc1noc(-c2ccc(OC3CN(C(=O)NCc4ccccc4)C3)cc2)n1	836 s
Cc1nn2c(CNS(=O)(=O)c3c(C)noc3C)c(C)nc2s1	640 s
CCOC(=O)Cn1c(=O)c2cnc(-c3ccc(Cl)cc3)nc2n(C)c1=O	1130 s
Cc1ccc(NC(=O)Cn2nc3c(Oc4ccc(Cl)cc4)nccn3c2=O)cc1	864 s
COc1ccccc1N1CCN(CCCNS(=O)(=O)c2ccc3c(c2)CCCC(=O)N3)CC1	616 s
COc1ccc(O)c2c(=O)c3c(OC)cc4c(c3oc12)[C@@H]1C=CO[C@@H]1O4	979 s
CCc1nc(OCC(=O)Nc2ccc(C)cc2Br)c2ccccc2n1	895 s
O=c1ccc(N2CCCN(S(=O)(=O)c3ccccc3F)CC2)nn1-c1ccc(Cl)cc1	925 s
CC(=O)N1CCCc2cc(S(=O)(=O)N3CCC(C(=O)NCc4ccccn4)CC3)ccc21	607 s
O=C(NC1CCN(c2cc(-c3ccc(Cl)cc3)[nH]n2)C1)c1ccc2cc[nH]c2c1 (configuration not stated)	762 s
O=S(=O)(c1ccc2c(c1)-c1oncc1CO2)N1CCN(c2ccccc2)CC1	1030 s
O=C1COc2ccccc2N1Cc1nc(-c2cccc(Br)c2)no1	1120 s
CN(C)c1ccc(NC(=O)c2c(O)c3ccccc3n(-c3ccccc3)c2=O)cc1	1180 s
Cc1ccc(N2C(=O)CCS2(=O)=O)cc1S(=O)(=O)N1CCN(c2ccccn2)CC1	635 s
Cc1ccc(F)cc1NC(=O)Cn1nc2c(Oc3cccc(F)c3)nccn2c1=O	829 s
Cc1ccc(NC(=O)N2CCc3cn(C)c4cccc(c34)C2)cc1C	981 s
Cc1ccc(NC(=O)CN2CCC(C(=O)NCc3c(F)cccc3F)CC2)c(C)c1	585 s
O=C(C1CCCO1)N1CCC(OCc2nc(C3CC3)no2)CC1 (configuration not stated)	635 s
Cc1ccccc1Oc1nccnc1N1CCCC(C(=O)NC2CCCCCC2)C1 (configuration not stated)	1120 s

Structure (SMILES)	RP-LC retention time
CCn1ccc(NC(=O)Nc2cc(C)cc(C)c2)n1	853 s
Fc1ccc(-c2nc(-c3ccc4c(c3)ncn4CCN3CCOCC3)no2)cc1	632 s
CCc1cccc(NC(=O)CN2C(=O)CCc3cc(S(=O)(=O)N4CCCCC4C)ccc32)c1 (configuration not stated)	998 s
FC(F)(F)c1cccc(-c2noc(Cc3nnc(-c4ccccc4)o3)n2)c1	1080 s
CCCN1CCN(C(=O)CCCn2c3ccccc3c3cnn(C)c(=O)c32)CC1	600 s
CCc1sc(NC(=O)c2cccc(NC(=O)C(CC)CC)c2)nc1-c1ccccc1	1170 s
Cc1cc(C)c2c(n1)sc1c(N3CCC(C(=O)N4CCN(c5ccccn5)CC4)CC3)ncnc12	668 s
O=C(Cc1cccs1)N1CCN(Cc2nc(-c3ccc(Cl)cc3)cs2)CC1	754 s
COCCN1C(=O)CCc2cc(NS(=O)(=O)c3cccc(F)c3)ccc21	748 s
Cc1nn(-c2nc3ccccc3[nH]2)c2c1C(=O)CC(c1ccc(F)cc1)C2 (configuration not stated)	1000 s
Cn1cc(S(=O)(=O)N2CCCCC2)cc1C(=O)N1CCN(c2ccccc2F)CC1	961 s
Cc1ccc2c(NCc3ccc(Cl)cc3)c(-c3nc(C)no3)cnc2n1	727 s
O=C(C1CCN(c2nc3ccc(-c4cccc(F)c4)nc3s2)CC1)N1CCCC1	981 s
O=C(NCc1cc(F)cc(F)c1)C1CCN(c2cncnc2N2CCCCC2)CC1	700 s
COc1ccccc1N1CCN(c2cc(SCC(=O)NCc3ccc4c(c3)OCO4)ncn2)CC1	840 s
O=C(Nc1cnc(-c2ccccc2)nc1)C1CCC1	856 s
CC1=C(c2ccccc2)S(=O)(=O)N=C1N1CCCN(C(=O)NC(C)(C)C)CC1	790 s
O=C(Cn1nc2c(N3CCCCCC3)nccn2c1=O)Nc1ccc(F)cc1F	705 s
O=C(C1=CN(c2ccc(F)cc2)c2cc(F)ccc2S1(=O)=O)N1CCOCC1	769 s
COc1cc(OC)cc(-c2nc(-c3ccc(-n4ccnc4)nc3)no2)c1	769 s
Cc1noc(C)c1Cc1ccc(C(=O)N2CCCCCCNC(=O)[C@@H]3CCCC[C@@H]32)o1	839 s
